Experimental data from patent US20230355500A1, “TOPICAL COMPOSITION” (LILIGER LTD, priority 2021, published 2023).

What was measured:
stratum corneum = settings: patients with atopic dermatitis, topical treatment; cited from earlier work
skin = assay: Concentration needed for skin effect, judged by redness, swelling, tingling and burning sensation; assay type: in vivo, human
Procedure: The concentration of the NO-donor in the topical composition of the present invention is determined by the amount that is sufficient to elevate the level of NO in the skin, upon topical application of the composition. Since measuring NO levels in humans is impractical, such elevation can be observed by the appearance of skin redness (erythema), swelling (oedema) a tingling sensation and a burning sensation, which is intensified as the concentration goes up. Furthermore, the occurrence of elevated NO can be noticed by its desirable cosmetic outcomes such as enhanced radiance and reduction of wrinkles.
For example, in the case of nitroglycerine, 2% is insufficient. At higher concentrations, from about 4%, a slight burning sensation is noticed. This sensation intensifies as the nitroglycerine concentration increases. Thus, in certain embodiments, the concentration of nitroglycerine as NO-donor is between about 4% - about 12%; and in other embodiments it can be from about 4%-8%, or from about 8%-12%.
In the case of arginine, 5% is insufficient. At higher concentrations, from about 6%, a slight burning sensation is noticed, and it is associated with a tingling sensation. This sensation intensifies as the arginine concentration increases. Thus, in certain embodiments, the concentration of arginine as NO-donor is at least about 6%. For example, between about 6% and about 25%. In other embodiments, the concentration of arginine can be from about 6% to about 8%, or from about 8% to about 10%, or from about 10% to about 14%, or from about 14% to about 18%, or from about 18% to about 25%, or from about 8% to about 25%, or from about 6% to about 12%, or from about 8% to about 12%, or from about 8% to about 10%.
The concentration of the counter-NO agent is determined so that the skin redness (erythema), swelling (oedema) and burning sensation, induced by the NO-donor is decreased or eliminated. For example, in certain cases, where the counter-NO agent is nicotinamide, 0.5% is insufficient. […]

ageing skin = assay: Treatment of ageing skin, study #2: day cream used for 28 days, unguided free-form feedback; assay type: in vivo, human; settings: addition of nicotinamide to the arginine cream
Source text: Objectives: To determine the impact of Composition #1 on middle-aged women after 28 days of continuous use. […] They were asked to use the cream daily for 28 days and to provide unguided input (free form) Results: 13 of the 20 women provided feedback that was summarized in the table below.

**Q.** Which results are given for Cl.N=C(N)NCCC[C@H](N)C(=O)O [arginine hydrochloride]?
**A.** Clinical symptoms of dry skin (stratum corneum): improvement; Skin moisture (stratum corneum): increase; Urea in the stratum corneum (stratum corneum): significantly increase

**Q.** For N=C(N)NCCC[C@H](N)C(=O)O [arginine, L-arginine], which “Sufficiency of the concentration as NO-donor” value (skin; 5% in the topical composition) is on record?
**A.** insufficient

**Q.** And the “Concentration from which a slight burning sensation is noticed” value (skin; human, in vivo)?
**A.** at least 6%

**Q.** Which results are given for NC(=O)c1cccnc1 [nicotinamide]?
**A.** Previous issues (Study #1) of burning sensation and over-tingling (ageing skin): solved; Sufficiency of the concentration as counter-NO agent (to decrease redness, swelling and burning sensation) (skin; 0.5% in the topical composition, in certain cases): insufficient
